# Experimental data taken from ChEMBL document CHEMBL1149069, “SB-202742, a novel beta-lactamase inhibitor isolated from Spondias mombin” (J Nat Prod, 1994).
# Active and inactive are the calls of the source. No cut-off for these calls is given here.
# Molecular target: Beta-lactamase TEM-2 (Escherichia coli) (UniProt P62593)
# Test: Inhibition of Escherichia coli W3110 beta-lactamase TEM2 assessed as inhibition of nitrocefin hydrolysis at 1 ug/ml pre-incubated for 5 mins by microtiter plate assay
smiles,measurement,value
CC/C=C\C/C=C\C/C=C\CCCCCCCc1cccc(O)c1C(=O)O,Activity,Active
